Experimental data reported in patent US20250304587A1, “WEE1 INHIBITOR, PREPARATION THEREFOR AND USE THEREOF” (JIANGSU TASLY DIYI PHARMACEUTICAL CO., LTD., priority 2022, published 2025).

Assays:
[1] = Metabolic stability in liver microsomes, rat; assay type: in vitro ADME
Description: (§1) Microsomes were taken out from the −80° C. refrigerator, rapidly melted in a 37° C. water bath and placed on ice until ready to use. The test article was diluted with DMSO to prepare a 10 mM stock solution, and then diluted with acetonitrile to a 0.5 mM secondary stock solution. […] NADPH was diluted with Buffer C to a working solution of 6 mM for the starter solution. An acetonitrile solution containing an internal standard was prepared as the precipitant, and Verapamil-HCl was chosen as the internal standard at a concentration of 4 ng/ml. […] A separate plate with pointed bottom wells, noted as a precipitation plate, was added with 135 μL precipitant per well; 0 h samples were transferred to the plate after 10 min incubation and 15 μL of starter solution was added; the plate was placed on ice before centrifugation. The diluted starter solution was added in sufficient quantity to the dispensing plate to facilitate the multichannel pipette aspiration operation. The reaction was carried out on a warm incubation shaker and 15 μL of starter solution/sample is added to the plate using a multichannel pipette. The reaction was mixed with a slight shake to initiate the reaction, which was accurately timed and recorded using a timer; After the reaction time had elapsed, all the solution in the plate was aspirated using the multichannel pipette and added to the precipitation plate to terminate the reaction at that point in time. After all reactions had been terminated, the plates were shaken for ten minutes on a plate shaker at 600 rpm to precipitate the protein. The plate was centrifuged at 4° C. for 15 minutes at maximum rpm. 80 μL of supernatant was taken, 320 μL of pure water was added and mixed for LC-MS analysis.

[2] = Metabolic stability in liver microsomes, monkey; assay type: in vitro ADME
Description: as §1

OVCAR-3 cells = test: Cell Titer-Glo anti-proliferation, OVCAR-3 cells; assay type: cell-based; conditions: 3 days, read-out: Anti-proliferative activity OVCAR-3 (IC50 class)
How it was run: (§2)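 Each line was exposed to graded compound concentrations for 3 days at 37 °C, 5% CO2, with final DMSO at 0.2%. Viability was measured by Cell Titer-Glo luminescence, with untreated cells as the maximum and medium as the minimum signal. IC50 came from a variable-slope log(inhibitor)-response fit.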

HK2 cells = test: Cell Titer-Glo anti-proliferation, normal cells HK2; assay type: cell-based
Description: (§3) Compound solutions of different concentration gradients were prepared. […] The cell growth group without compound was used as a positive control (maximum signal control) and the medium was used as a negative control (minimum signal control), while ensuring that the final level of DMSO in each reaction well was 0.2%. After removing the medium from the 384-well plate, 25 μl of the configured compound at different concentrations was transferred into the well plate and the compound and cells were incubated in the cell incubator at 37° C. with 5% CO2 for 3 days.
(§4) The 384-well plates were removed from the cell incubator and allowed to equilibrate for 1 h to room temperature. 25 μl of Cell Titer-Glo assay was added to each well, lysed on a shaker for 2 min and then read out (Luminescence) using a BMG PHERAStar after 10 min incubation. Calculate the inhibition rate from the luminescence signal.
(§5) to calculate the rate of inhibition of the cells by different concentrations of the compounds. The IC50 of the compound on cell activity inhibition was calculated by fitting a log(inhibitor) vs. response-Variable slope model to GraphPad Prism 6. The fitted equation was: Y=Bottom+(Top-Bottom)/(1+10^((Log IC50−X)*HillSlope)), where Y represents the rate of inhibition and X represents the concentration of the known compound after Log.
(§6) B. Evaluation of the Anti-Proliferative Effect of Compounds by the Cell Titer-Glo Method on Normal Cells HUVEC and HK2.
(§7) The test method is the same as the anti-proliferative activity evaluation of tumor cells.

[3] = Metabolic stability in liver microsomes, human; assay type: in vitro ADME
Description: as §1, with “Test Example 3: Evaluation of the Metabolic Stability of Liver Microsomes (Mouse and Human) In Vitro Microsomes” for “Microsomes”

[4] = Metabolic stability in liver microsomes, dog; assay type: in vitro ADME
Description: as §1

HT-29 cells = test: Cell Titer-Glo anti-proliferation, HT-29 cells; assay type: cell-based, human; conditions: 3 days, read-out: Anti-proliferative activity HT-29 (IC50 class)
How it was run: as §2

BxPC3 cells = test: Cell Titer-Glo anti-proliferation, BxPC3 cells; assay type: cell-based, human; conditions: 3 days, read-out: Anti-proliferative activity BxPC3 (IC50 class)
How it was run: as §2

[5] = Metabolic stability in liver microsomes, mouse; assay type: in vitro ADME
Description: as §1, with “Test Example 3: Evaluation of the Metabolic Stability of Liver Microsomes (Mouse and Human) In Vitro Microsomes” for “Microsomes”

HUVEC cells = test: Cell Titer-Glo anti-proliferation, normal cells HUVEC; assay type: cell-based
Description: as §3, §4, §5, §6, §7

plasma protein [6] = test: Plasma protein binding (equilibrium dialysis), mouse; conditions: mouse plasma, 1 μM, 5 h dialysis
Description: Sample preparation: The compound was dissolved in DMSO to a stock solution of 10 mM, then the compound was diluted with PBS to a secondary stock solution of 0.02 mM, and then the above 0.02 mM was diluted to 1 μM using blank plasma, which was the sample to be incubated.
Dialysis set-up preparation: 400 μL of blank PBS was first added to the white wells of the equilibrated dialysis plate and 200 μL of the configured plasma sample was added to the red wells, and the dialysis plate was sealed with a sealing film.
Recovery plate preparation: Two 96-well deep-well plates, labelled T0 and T5, were prepared and all plasma samples were added at n=2. 300 μL of acetonitrile (Verapamil-HCl, 4 ng/mL) was added directly to the TO plate, followed by 50 μL of blank PBS mix well for 5 min and left to stand in a 4° C. refrigerator until the end of the incubation.
Experimental Operation: The dialysis device and the T5 plate were incubated together for 5 h in a microplate thermostatic shaker (37° C., using 300 rpm or minimum speed). At the end of the incubation, 300 μL of acetonitrile (Verapamil-HCl, 4 ng/mL) was added and 50 μL of PBS solution was added. At the end of the dialysis incubation, a new 96-well deep well plate was taken. Add 50 μL of plasma well sample to the corresponding position of the 96-well plate, 300 μL of acetonitrile and 50 μL of blank PBS; take 50 μL of buffer well sample to the corresponding position of the 96-well plate, then add 300 μL of acetonitrile and 50 μL of blank plasma. Add 300 μL of acetonitrile (Verapamil-HCl, 4 ng/mL) to the plasma-containing wells of the T5 plate, and then 50 μL of PBS solution was added. Shake for 5 min to fully precipitate the proteins and centrifuge at 20,000 g for 10 min at 4° C. Add 200 μL of supernatant to 200 μL of pure water, mix well and perform LC-MS/MS analysis.
• Plasma protein binding rate=[(Rpe−Rb)/Rpe]×100% • Recovery=[(Rpe+Rb)/R5 h]×100% • Stability=(R5/R0)×100%
• Rpe=ratio of plasma-side testing sample peak area to internal standard • Rb=ratio of buffer side testing sample peak area to internal standard • R5=ratio of incubator stability sample peak area to internal standard • R0=ratio of refrigerator stability sample peak area to internal standard

Caco-2 cells = test: Membrane permeability in Caco-2 model; assay type: in vitro ADME; conditions: for Efflux Ration: Caco2; for Papp A to B / Papp B to A: Caco2, 10 μM, 90 min
Description: (§8) Caco-2 cells were purchased from the American Model Tissue Cell Collection (Rockville, MD). The cell culture medium was modified Eagle's medium (MEM) containing 10% inactivated fetal bovine serum and 1% non-essential amino acids. […] The cells were incubated for 21-28 days after inoculation for transport experiments and the apparent permeability (Papp) of Lucifer Yellow was used to characterize and verify the compactness of the cell monolayer. […] After the incubation, dilute the samples on the apical side and basolateral side, and the concentrations of compounds on the apical and basolateral sides were detected by LC-MS/MS, and the concentrations of the compounds were quantified by standard curve.

Wee1 protein = Wee1 protein (Homo sapiens (Human), UniProt P30291); test: TR-FRET binding of compound to Wee1 protein and Tracer 178; conditions: Tracer 178, read-out: IC50, inhibitory activity against Wee1 kinase
Chain of Wee1 protein (P30291 whole entry): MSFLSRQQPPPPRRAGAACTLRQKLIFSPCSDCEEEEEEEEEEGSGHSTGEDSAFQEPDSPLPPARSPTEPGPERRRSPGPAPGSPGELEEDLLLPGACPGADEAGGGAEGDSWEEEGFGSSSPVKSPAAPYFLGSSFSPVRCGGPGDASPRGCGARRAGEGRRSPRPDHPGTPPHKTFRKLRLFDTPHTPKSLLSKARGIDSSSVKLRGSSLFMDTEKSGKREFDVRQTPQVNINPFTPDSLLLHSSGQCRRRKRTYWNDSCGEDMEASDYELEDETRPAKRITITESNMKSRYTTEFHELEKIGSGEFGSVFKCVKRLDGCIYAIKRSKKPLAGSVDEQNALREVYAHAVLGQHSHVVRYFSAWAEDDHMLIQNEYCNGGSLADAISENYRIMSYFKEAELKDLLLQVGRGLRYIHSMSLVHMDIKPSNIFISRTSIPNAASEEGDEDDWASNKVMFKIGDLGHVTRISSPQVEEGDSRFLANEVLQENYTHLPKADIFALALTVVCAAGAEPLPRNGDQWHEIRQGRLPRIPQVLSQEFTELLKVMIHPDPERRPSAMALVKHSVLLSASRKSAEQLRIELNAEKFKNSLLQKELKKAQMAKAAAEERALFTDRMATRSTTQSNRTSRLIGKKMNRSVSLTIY
Description: First, solutions of the compounds in different concentration gradients were prepared. The compounds were dissolved in DMSO and the compounds were diluted 4 folds with a total of 10 dose points and 2 parallel replicates for each concentration.
The IC50 for inhibition of enzyme activity by the compounds was then calculated using GraphPad Prism 6 and fitted with a log (inhibitor) vs. response-Variable slope mode. The fitting equation was: Y=Bottom+(Top−Bottom)/(1+10^((Log IC50−X)*HillSlope)), where Y represents the percentage of residual enzyme activity known and X represents the known concentration of compound after the logarithm.

plasma protein [7] = test: Plasma protein binding (equilibrium dialysis), rat; assay type: in vitro ADME; conditions: 1 μM, 5 h dialysis
hERG potassium channel = hERG potassium channel (Homo sapiens (Human), UniProt Q12809); test: hERG potassium channel inhibition, patch clamp in CHO hERG cells
Chain of hERG potassium channel (Q12809 whole entry): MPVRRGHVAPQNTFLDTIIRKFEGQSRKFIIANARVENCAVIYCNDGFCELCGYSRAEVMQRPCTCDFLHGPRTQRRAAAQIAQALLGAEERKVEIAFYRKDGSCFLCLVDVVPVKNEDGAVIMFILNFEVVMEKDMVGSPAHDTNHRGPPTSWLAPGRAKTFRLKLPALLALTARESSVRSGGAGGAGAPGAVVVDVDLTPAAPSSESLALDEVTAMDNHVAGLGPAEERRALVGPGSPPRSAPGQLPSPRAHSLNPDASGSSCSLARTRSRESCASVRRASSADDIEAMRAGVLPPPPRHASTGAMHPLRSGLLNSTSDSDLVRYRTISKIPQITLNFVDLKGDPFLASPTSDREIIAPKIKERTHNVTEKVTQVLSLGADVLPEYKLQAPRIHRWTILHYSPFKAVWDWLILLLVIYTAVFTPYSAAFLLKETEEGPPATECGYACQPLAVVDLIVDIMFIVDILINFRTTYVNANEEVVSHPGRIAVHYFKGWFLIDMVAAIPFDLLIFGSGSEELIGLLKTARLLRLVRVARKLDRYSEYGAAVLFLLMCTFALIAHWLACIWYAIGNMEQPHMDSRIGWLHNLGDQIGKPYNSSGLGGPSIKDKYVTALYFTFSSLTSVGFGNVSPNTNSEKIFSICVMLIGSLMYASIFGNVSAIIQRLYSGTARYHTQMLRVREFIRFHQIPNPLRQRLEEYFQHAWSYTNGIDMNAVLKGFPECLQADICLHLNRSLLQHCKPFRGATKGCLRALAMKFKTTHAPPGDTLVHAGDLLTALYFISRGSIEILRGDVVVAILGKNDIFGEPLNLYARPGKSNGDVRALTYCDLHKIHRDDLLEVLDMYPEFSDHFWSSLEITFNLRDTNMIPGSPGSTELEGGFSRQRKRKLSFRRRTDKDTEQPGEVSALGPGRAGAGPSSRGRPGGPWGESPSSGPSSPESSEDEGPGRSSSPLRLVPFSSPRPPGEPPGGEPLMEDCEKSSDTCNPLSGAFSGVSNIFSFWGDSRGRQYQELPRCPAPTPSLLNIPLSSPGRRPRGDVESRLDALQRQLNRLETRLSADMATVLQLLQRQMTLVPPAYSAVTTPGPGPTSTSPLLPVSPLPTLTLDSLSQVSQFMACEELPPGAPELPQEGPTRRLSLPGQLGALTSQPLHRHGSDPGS
Description: The cell line used for the patch clamp assay was a 10th generation CHO cell overexpressing hERG potassium channel cDNA. CHO hERG cells were cultured in Petri dishes or flasks at 37° C. in a 5% CO2 incubator. Cells were dropped onto circular slides 24-48 hours prior to electrophysiological experiments and cultured in cell culture medium and used for experiments after the cells had been adhered.
Cell culture medium (purchased from Invitrogen) Composition: • Ham's F12 medium • 10% (v/v) heat inactivated FBS • 100 μg/ml Hygromycin B (thaumatin) • 100 μg/ml Geneticin (Genomycin, G418)
Compound powders are dissolved in the extracellular solution and are subjected to a routine 5 to 10 minute sonication and shaking to ensure complete dissolution of the compound.
The final concentrations of compounds used for electrophysiological assays were 5, 20 μM and the final concentration of DMSO was 0.1%.
Cell membrane currents were recorded using a HEKA EPC-10 USB patch-clamp amplifier (HEKA Elektronik, Germany). • 1) A coverslip with a large number of uniformly growing individual CHO hERG cells on its surface was taken. Place in a continuous recording cell on an inverted microscope, perfused with extracellular fluid (approximately 1 ml per minute) and recorded continuously, waiting for the current to stabilize. • 2) Record HERG channel currents for individual cells using standard whole cell recording mode. The membrane voltage is first clamped at −80 mV and the cell is given a +20 mV stimulus for 5 s to activate the hERG potassium channel, then repolarized to −50 mV for 5 s to generate an outward tail current, which is continuously perfused until the current is stable, at which point the peak tail current is the control current value. • 3) The extracellular solution containing the drug to be tested was then perfused and recorded until the inhibitory effect of the drug on the hERG current reached a steady state, at which point the peak tail current was the post-drug current value. • 4) The cells are again perfused with the extracellular solution until the hERG current returns to or approaches the level prior to the addition of the drug, then the perfusion can be continued to test other concentrations or drugs. One or more compound or drug concentrations may be tested on each cell. • 5) Cisapride (C4740-10 mg, Sigma) is used as a positive control in the experiment to ensure that the cells used respond properly.

[8] = Membrane permeability in Caco-2 model; assay type: in vitro ADME; conditions: human, Caco-2, pH 7.4
Description: as §8

SMILES	T1/2 liver microsomes Rat [1] [min]	T1/2 liver microsomes Monkey [2] [min]	IC50 (OVCAR-3 cells) [µM]	IC50 (HK2 cells) [µM]	T1/2 liver microsomes Human [3] [min]	T1/2 liver microsomes Dog [4] [min]	IC50 (HT-29 cells) [µM]	IC50 (BxPC3 cells) [µM]	T1/2 liver microsomes Mouse [5] [min]	IC50 (HUVEC cells) [µM]	Plasma Protein binding (PPB) Mouse (plasma protein [6]) [%]	IC50 (Wee1 protein) [µM]	Plasma Protein binding (PPB) Rat (plasma protein [7]) [%]	further results
C=CCn1c(=O)c2cnc(Nc3ccc(N4CCC(N(C)C)CC4)c(C)c3)nc2n1-c1ccc2c(n1)[C@@](C)(O)C1(CC2)CC1 (single isomer, unassigned) [Compound 52a]	31.42	14.22	0.1 to 1	0.48	26.24	22.8	0.1 to 1	0.1 to 1	96.19	3.83	–	–	–	–
C=CCn1c(=O)c2cnc(Nc3ccc(N4CCC(N(C)C)CC4)c(C)c3)nc2n1-c1ccc2c(n1)C(C)(O)C1(CC1)C2 (racemic) [Compound 15]	–	–	0.1 to 1	0.76	–	–	0.1 to 1	0.1 to 1	–	> 10	93.51	–	–	–
C=CCn1c(=O)c2cnc(Nc3ccc(N4CCN(C)CC4)cc3)nc2n1-c1ccc2c(n1)[C@H](O)C1(CC2)CC1 (single isomer, unassigned) [Compound 4b]	>120	22.84	0.1 to 1	1.29	44.82	41.74	0.1 to 1	0.1 to 1	72.82	> 10	87.71	≤ 0.005	77.45	Efflux Ration (Caco-2 cells): 14.03; Papp A to B (Caco-2 cells): 0.94 10^−6 cm/s; Papp B to A (Caco-2 cells): 13.19 10^−6 cm/s; hERG Inhibition (hERG potassium channel; test concentration 5 μM): 23.84 ± 4.39%; hERG Inhibition (hERG potassium channel; test concentration 20 μM): 42.42 ± 5.58%
[2H][C@]1(O)c2nc(-n3c4nc(Nc5ccc(N6CCC7(CCN(C)CC7)CC6)c(C)c5)ncc4c(=O)n3CC=C)ccc2CCC12CC2 [Compound 61b]	–	–	–	–	–	–	–	–	–	–	98.46	–	93.61	–
C=CCn1c(=O)c2cnc(Nc3ccc(N4CCC5(CCN(C)CC5)CC4)cc3)nc2n1-c1ccc2c(n1)C(C)(O)C1(CC1)C2 (centres unmarked) [Compound 11]	–	–	0.1 to 1	1.46	–	–	0.1 to 1	0.1 to 1	–	> 10	92.17	–	–	Efflux Ration (Caco-2 cells): 21.59; Papp A to B (Caco-2 cells): 0.41 10^−6 cm/s; Papp B to A (Caco-2 cells): 8.85 10^−6 cm/s
C=CCn1c(=O)c2cnc(Nc3ccc(N4CCN(C)CC4)cc3)nc2n1-c1ccc2c(n1)C(O)(C(F)(F)F)C1(CC1)C2 (centres unmarked) [Compound 32]	–	–	1 to 2	1.14	–	–	0.1 to 1	1 to 2	–	> 10	96.87	0.005 to 0.01	–	–
CC(C)NCC(O)COc1cccc2ccccc12 (centres unmarked) [Propranolol]	–	–	–	–	–	–	–	–	–	–	–	–	–	Papp A→B at 90 min, 10 µM ([8]; Caco2, 10 μM, 90 min): 14.7 ×10⁻⁶ cm/s; Papp B→A at 90 min, 10 µM ([8]; Caco2, 10 μM, 90 min): 13 ×10⁻⁶ cm/s; efflux ratio at 90 min, 10 µM ([8]; Caco2, read-out: Efflux Ration): 0.88
C=CCn1c(=O)c2cnc(Nc3ccc(N4C[C@H]5CN(C)C[C@H]5C4)cc3)nc2n1-c1ccc2c(n1)C(O)(CC)C1(CC1)C2 (some centres unmarked) [Compound 28]	30.9	17.74	0.1 to 1	1.19	29.95	38.2	0.1 to 1	0.1 to 1	51.65	> 10	92.29	≤ 0.005	86.08	–
